Experimental data from US12448371B2, “Inhibitor compounds” (Cincera Therapeutics Pty Ltd, priority 2019, dated 2025).
Where a name gives a salt, the structure may show the parent alone.

Biological target: T1, Des1 (h) (Homo sapiens, UniProt O15121)
T1 construct: endogenous in cells; host or cells: parental Jurkat cells
T1 sequence (O15121 1-323): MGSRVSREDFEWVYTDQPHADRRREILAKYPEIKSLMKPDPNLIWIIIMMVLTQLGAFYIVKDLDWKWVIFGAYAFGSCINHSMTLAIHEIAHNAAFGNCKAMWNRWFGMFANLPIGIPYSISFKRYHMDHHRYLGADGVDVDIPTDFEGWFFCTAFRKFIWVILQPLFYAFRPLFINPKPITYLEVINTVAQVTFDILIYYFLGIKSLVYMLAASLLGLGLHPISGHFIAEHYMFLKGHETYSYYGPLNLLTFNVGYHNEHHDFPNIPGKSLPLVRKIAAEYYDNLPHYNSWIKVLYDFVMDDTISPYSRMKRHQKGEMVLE
Experiment: Measurement of Dihydroceramide Desaturase-1 (Des-1) activity in intact Jurkat cells labeled with DhCer-C6-NBD (HPLC)
Format: cell-based
Conditions: for IC50: intact Jurkat cells, given as concentration range, or <X / >X if measured at one concentration X only, read-out: Des1 (h) Jurkat IC50
Procedure: Measurement of Dihydroceramide Desaturase-1 (Des-1) Activity
Compounds were assessed for Des-1 inhibitory activity. Measurement of Des1 activity was performed by HPLC using intact Jurkat cells labeled with DhCer-C6-NBD as described previously (Munoz-Olaya, J. M. et al. ChemMedChem 2008, 3, 946-953) with modifications to enhance sensitivity and reproducibility. These modifications included the use of parental Jurkat cells, 0.5% serum in the culture media, and cell harvesting via centrifugation at 500×g to maximise ceramide extraction. Extracted samples (50 ul) were analysed on a Waters HPLC coupled to a fluorescence detector using a 30 cm C18 reverse-phase column eluted with 1 ml/min 20% H2O and 80% acetonitrile, both with a 0.1% of trifluoroacetic acid. NBD-labelled substrate and product were quantitated with an excitation and emission wavelengths of 465 nm and 530 nm, respectively.

Row | IC50 | Compound | also measured
1 | < 1 µM | CN(O)C(=O)c1ccc(Nc2ncn(-c3ccc(C(F)(F)F)cc3)n2)cn1 [Example 25, N-Hydroxy-N-methyl-5-((1-(4-(trifluoromethyl)phenyl)-1H-1,2,4-triazol-3-yl)amino)picolinamide] | –
2 | 0.001 to 0.01 µM | N/C(=N\O)c1ncc(Nc2ncc(-c3ccc(C(F)(F)F)cc3)o2)cc1O [Example 26, N′,3-Dihydroxy-5-((5-(4-(trifluoromethyl)phenyl)oxazol-2-yl)amino)picolinimidamide] | –
3 | 0.0001 to 0.001 µM | Cc1cc(Nc2ncc(-c3ccc(C(F)(F)F)cc3)o2)cc(=O)n1O [Example 27, 1-Hydroxy-6-methyl-4-((5-(4-(trifluoromethyl)phenyl)oxazol-2-yl)amino)pyridin-2(1H)-one] | –
4 | < 1 µM | CN(O)C(=O)c1ncc(Nc2ncc(-c3ccc(C(F)(F)F)cc3)o2)cc1O [Example 28, N,3-Dihydroxy-N-methyl-5-((5-(4-(trifluoromethyl)phenyl)oxazol-2-yl)amino)picolinamide] | –
5 | < 1 µM | O=c1c(O)c(Nc2ccc(Nc3ncc(-c4ccc(C(F)(F)F)cc4)o3)cn2)c1=O [Example 30, 3-Hydroxy-4-((5-((5-(4-(trifluoromethyl)phenyl)oxazol-2-yl)amino)pyridin-2-yl)amino)cyclobut-3-ene-1,2-dione] | –
6 | < 1 µM | N/C(=N\O)c1ncc(Nc2ncn(-c3ccc(C(F)(F)F)cc3)n2)cc1O [Example 31, N′,3-Dihydroxy-5-((1-(4-(trifluoromethyl)phenyl)-1H-1,2,4-triazol-3-yl)amino)picolinimidamide] | –
7 | < 1 µM | CCN(O)C(=O)c1ccc(Nc2ncc(-c3ccc(C(F)(F)F)cc3)o2)cn1 [Example 32, N-Ethyl-N-hydroxy-5-((5-(4-(trifluoromethyl)phenyl)oxazol-2-yl)amino)picolinamide] | –
8 | > 1 µM | CC(C)N(O)C(=O)c1ccc(Nc2ncc(-c3ccc(C(F)(F)F)cc3)o2)cn1 [Example 34, N-Hydroxy-N-isopropyl-5-((5-(4-(trifluoromethyl)phenyl)oxazol-2-yl)amino)picolinamide] | inhibition at 1 µM (Jurkat cells, 1 μM): 23%
9 | 0.01 to 0.1 µM | CN(O)C(=O)Nc1ccc(Nc2ncc(-c3ccc(C(F)(F)F)cc3)o2)cn1 [Example 35, 1-Hydroxy-1-methyl-3-(5-((5-(4-(trifluoromethyl)phenyl)oxazol-2-yl)amino)pyridin-2-yl)urea] | –
10 | 0.001 to 0.01 µM | O=C(NC[C@@H](O)CO)c1ccc(Nc2ncc(-c3ccc(C(F)(F)F)cc3)o2)cn1 [Example 36, (R)—N-(2,3-Dihydroxypropyl)-5-((5-(4-(trifluoromethyl)phenyl)oxazol-2-yl)amino)picolinamide] | –
11 | > 1 µM | O=C(NC[C@H](O)CO)c1ccc(Nc2ncc(-c3ccc(C(F)(F)F)cc3)o2)cn1 [Example 37, (S)—N-(2,3-Dihydroxypropyl)-5-((5-(4-(trifluoromethyl)phenyl)oxazol-2-yl)amino)picolinamide] | % inhibition of Des1 at 1 μM (Jurkat cells, 1 μM): no inhibition
12 | > 1 µM | O=C(NC[C@@H](O)CO)c1ccc(Nc2ncn(-c3ccc(C(F)(F)F)cc3)n2)cn1 [Example 38, (R)—N-(2,3-Dihydroxypropyl)-5-((1-(4-(trifluoromethyl)phenyl)-1H-1,2,4-triazol-3-yl)amino)picolinamide] | inhibition at 1 µM (Jurkat cells, 1 μM): 30%
13 | < 1 µM | Cc1nc(Nc2cnc(/C(N)=N/O)c(O)c2)oc1-c1ccc(C(F)(F)F)cc1 [Example 39, N′,3-Dihydroxy-5-((4-methyl-5-(4-(trifluoromethyl)phenyl)oxazol-2-yl)amino)picolinimidamide] | –
14 | 0.01 to 0.1 µM | N/C(=N\O)c1ncc(Nc2ncc(-c3ccc(C(F)(F)F)cn3)o2)cc1O [Example 40, N′,3-Dihydroxy-5-((5-(5-(trifluoromethyl)pyridin-2-yl)oxazol-2-yl)amino)picolinimidamide hydrochloride] | –
15 | < 0.1 µM | O=C(NC[C@@H](O)CO)c1ccc(Nc2ncc(-c3ccc(C(F)(F)F)cc3)o2)nn1 [Example 41, (R)—N-(2,3-Dihydroxypropyl)-6-((5-(4-(trifluoromethyl)phenyl)oxazol-2-yl)amino)-pyridazine-3-carboxamide] | –
16 | 0.001 to 0.01 µM | N/C(=N\O)c1ncc(Nc2ncc(-c3ccc(C(F)(F)F)c(F)c3)o2)cc1O [Example 43, 5-((5-(3-Fluoro-4-(trifluoromethyl)phenyl)oxazol-2-yl)amino)-N′,3-dihydroxypicolinimidamide] | –
17 | 0.001 to 0.01 µM | O=C(NC[C@@H](O)CO)c1ccc(Nc2ncc(-c3ccc(C(F)(F)F)c(F)c3)o2)cn1 [Example 44, (R)—N-(2,3-Dihydroxypropyl)-5-((5-(3-fluoro-4-(trifluoromethyl)phenyl)oxazol-2-yl)amino)picolinamide] | –

Row | IC50 | Compound | also measured
18 | < 0.1 µM | N/C(=N\O)c1ccc(Nc2ncc(-c3ccc(C(F)(F)F)c(F)c3)o2)cn1 [Example 45, 5-((5-(3-Fluoro-4-(trifluoromethyl)phenyl)oxazol-2-yl)amino)-N′-hydroxypicolinimidamide] | –
19 | < 0.1 µM | N=C(NO)c1ccc(Nc2ncc(-c3ccc(F)cc3)o2)nn1 [Example 47, 6-((5-(4-Fluorophenyl)oxazol-2-yl)amino)-N′-hydroxypyridazine-3-carboximidamide] | –
20 | 0.001 to 0.01 µM | N=C(NO)c1ccc(Nc2ncc(-c3ccc(F)c(F)c3)o2)nn1 [Example 48, 6-((5-(3,4-Difluorophenyl)oxazol-2-yl)amino)-N′-hydroxypyridazine-3-carboximidamide] | –
21 | < 0.1 µM | N=C(NO)c1ccc(Nc2ncc(-c3ccc(F)cn3)o2)nn1 [Example 49, 6-((5-(5-Fluoropyridin-2-yl)oxazol-2-yl)amino)-N′-hydroxypyridazine-3-carboximidamide] | –
22 | < 1 µM | N=C(NO)c1cc(Nc2ncc(-c3ccc(C(F)(F)F)cc3)o2)ncc1O [Example 50, N,5-Dihydroxy-2-((5-(4-(trifluoromethyl)phenyl)oxazol-2-yl)amino)isonicotinimid-amide] | –
23 | 0.1 to 1 µM | N/C(=N\O)c1ccc(Nc2ncc(-c3ccc(OC(F)F)cc3)o2)cn1 [Example 51, 5-((5-(4-(Difluoromethoxy)phenyl)oxazol-2-yl)amino)-N′-hydroxy picolinimidamide] | –
24 | 0.1 to 1 µM | N/C(=N\O)c1ccc(Nc2ncc(-c3ccc(C(F)F)cc3)o2)cn1 [Example 52, 5-((5-(4-(Difluoromethyl)phenyl)oxazol-2-yl)amino)-N′-hydroxypicolinimidamide] | –
25 | 0.001 to 0.01 µM | N/C(=N\O)c1ccc(Nc2ncc(-c3ccc(C(F)(F)F)cc3)o2)nn1 [Example 53, N′-Hydroxy-6-((5-(4-(trifluoromethyl)phenyl)oxazol-2-yl)amino)pyridazine-3-carboximidamide] | –
26 | – | N/C(=N\O)c1ncc(Nc2ncc(-c3ccc(C(F)(F)F)cn3)o2)cc1F [Example 56, 3-Fluoro-N′-hydroxy-5-((5-(5-(trifluoromethyl)pyridin-2-yl)oxazol-2-yl)amino)picolinimidamide] | % inhibition of Des1 at 0.1 μM (Jurkat cells, 0.1 μM): 86%
27 | > 1 µM | N/C(=N\O)c1ncc(Nc2ncc(-c3ccc(C(F)(F)F)cn3)o2)cn1 [Example 58, N′-Hydroxy-5-((5-(5-(trifluoromethyl)pyridin-2-yl)oxazol-2-yl)amino)pyrimidine-2-carboximidamide] | inhibition at 1 µM (Jurkat cells, 1 μM): 40%
28 | < 1 µM | N/C(=N\O)c1ccc(Nc2ncc(-c3ccc(C(F)(F)F)nc3)o2)cn1 [Example 59, N′-Hydroxy-5-((5-(6-(trifluoromethyl)pyridin-3-yl)oxazol-2-yl)amino)picolinimidamide] | –
29 | < 1 µM | N/C(=N\O)c1ccc(Nc2nc(-c3ccc(C(F)(F)F)cc3)co2)cn1 [Example 60, N′-Hydroxy-5-((4-(4-(trifluoromethyl)phenyl)oxazol-2-yl)amino)picolinimidamide] | –
30 | < 0.1 µM | N/C(=N\O)c1ccc(Nc2ncc(-c3ccc(C(F)(F)F)cn3)o2)nn1 [Example 61, N′-hydroxy-6-((5-(5-(trifluoromethyl)pyridin-2-yl)oxazol-2-yl)amino)pyridazine-3-carboximidamide] | –
31 | > 1 µM | N/C(=N/O)c1ccc(Nc2ncc(-c3ccc(C4CC4)cn3)o2)cn1 [Example 62, 5-((5-(5-Cyclopropylpyridin-2-yl)oxazol-2-yl)amino)-N′-hydroxypicolinimidamide] | inhibition at 1 µM (Jurkat cells, 1 μM): 42%
32 | > 1 µM | N/C(=N\O)c1cnc(Nc2ncc(-c3ccc(C(F)(F)F)cc3)o2)nc1 [Example 63, N′-Hydroxy-2-((5-(4-(trifluoromethyl)phenyl)oxazol-2-yl)amino)pyrimidine-5-carboximidamide] | inhibition at 1 µM (Jurkat cells, 1 μM): 23%
33 | > 1 µM | N/C(=N/O)c1ccc(Nc2ncc(-c3ccc(N4CC(F)(F)C4)cc3)o2)cn1 [Example 64, 5-((5-(4-(3,3-Difluoroazetidin-1-yl)phenyl)oxazol-2-yl)amino)-N′-hydroxypicolinimidamide] | inhibition at 1 µM (Jurkat cells, 1 μM): 23%
34 | > 1 µM | N/C(=N/O)c1ccc(Nc2ncc(-c3ncc(C(F)(F)F)cn3)o2)cn1 [Example 65, N′-Hydroxy-5-((5-(5-(trifluoromethyl)pyrimidin-2-yl)oxazol-2-yl)amino)picolinimidamide] | inhibition at 1 µM (Jurkat cells, 1 μM): 26%
